According to PMC7508162 (Frontiers in Pharmacology, 2020):

Legend:
NTPDase3 = target: T1, NTPDase3 (Homo sapiens, UniProt O75355); assay: Malachite green assay for NTPDase3; assay type: biochemical; set-up: expressed in transfected cells; host or cells: COS-7 cell membrane preparations; settings: ATP 50 µM, recombinant COS-7 cell membrane preparation, read-out: Ki ± SEM
T1 sequence (O75355 1-529): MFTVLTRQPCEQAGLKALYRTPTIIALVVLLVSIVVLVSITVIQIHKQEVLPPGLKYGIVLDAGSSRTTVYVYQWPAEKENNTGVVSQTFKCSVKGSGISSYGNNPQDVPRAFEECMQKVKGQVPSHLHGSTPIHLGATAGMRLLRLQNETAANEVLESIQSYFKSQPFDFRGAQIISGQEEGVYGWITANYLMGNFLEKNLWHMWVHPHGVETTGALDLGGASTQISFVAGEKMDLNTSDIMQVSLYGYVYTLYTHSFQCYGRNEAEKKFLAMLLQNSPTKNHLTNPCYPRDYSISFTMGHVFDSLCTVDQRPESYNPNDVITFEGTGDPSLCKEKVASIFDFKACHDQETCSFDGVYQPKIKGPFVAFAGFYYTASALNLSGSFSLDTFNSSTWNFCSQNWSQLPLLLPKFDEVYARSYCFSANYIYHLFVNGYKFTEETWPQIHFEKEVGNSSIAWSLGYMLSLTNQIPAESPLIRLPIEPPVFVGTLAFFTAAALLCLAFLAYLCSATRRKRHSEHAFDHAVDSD
Method: The enzymatic activity assay was determined essentially as previously described ([Cogan et al., 1999]) with a few adaptations. The reaction buffer contained 10 mM HEPES, 2 mM CaCl2, 1 mM MgCl2, pH 7.4 in a final volume of 50 μl in transparent 96-well half area plates. For CD39 (NTPDase1), we made use of human umbilical cord membranes preparations which express high levels of the enzyme. For the other human NTPDase isoenzymes, we had to resort to recombinant expression. Human umbilical cord membrane preparations (250 ng) natively expressing high amounts of CD39, or the respective recombinant COS-7 cell membrane preparations expressing the appropriate NTPDase isoenzyme (ca. 100 ng of protein depending on enzyme activity) ([Sévigny et al., 1997]; [Lecka et al., 2013]) with or without inhibitor were preincubated at 37°C and gentle shaking (Eppendorf Thermomixer comfort at 500 rpm) for 5 min. The amount of enzyme preparation was adjusted to ensure 10–20% of substrate conversion. […] ([Kukulski et al., 2005]). After 15 min of incubation at 37°C with gentle shaking, the reaction was stopped by adding the detection reagents (20 µl malachite green solution, 0.6 mM, and 30 µl ammonium molybdate solution, 20 mM, in sulfuric acid, 1.5 M). The released (inorganic) phosphate was quantified after 20 min of gentle shaking at 25°C by measuring the absorption of the malachite green-phosphomolybdate complex at 600 nm using a BMG PheraStar FS plate reader (BMG Labtech GmbH, Ortenberg, Germany). The corrected absorption was calculated by subtracting the absorption of the negative control samples, which were incubated with denatured enzyme (90°C, 15 min), and the inhibition was calculated as follows:
% Inhibition=(B−T)/B*100% […]
Full concentration-inhibition curves were determined with inhibitor concentrations ranging from 0.1 to 300 µM in the presence of 2% DMSO. Three independent experiments were performed (n = 3) and curves were calculated by the GraphPad Prism 8 software. The Ki value was calculated using the Cheng-Prusoff equation for competitive inhibitors: […]

human CD38 = target: T2, human CD38 (Homo sapiens, UniProt P28907); assay: CD38 assay; assay type: biochemical; settings: analogous to NPP3 and NPP5 assays; for Ki: read-out: Ki ± SEM
T2 construct: the catalytic domains of the enzymes were amplified and sub-cloned into the expression vector pACGP67 A/B; 9xHis (C); made in house; host or cells: Sf9 insect cells (baculovirus, pACGP67 A/B)
T2 sequence (P28907 43-300 limits assumed): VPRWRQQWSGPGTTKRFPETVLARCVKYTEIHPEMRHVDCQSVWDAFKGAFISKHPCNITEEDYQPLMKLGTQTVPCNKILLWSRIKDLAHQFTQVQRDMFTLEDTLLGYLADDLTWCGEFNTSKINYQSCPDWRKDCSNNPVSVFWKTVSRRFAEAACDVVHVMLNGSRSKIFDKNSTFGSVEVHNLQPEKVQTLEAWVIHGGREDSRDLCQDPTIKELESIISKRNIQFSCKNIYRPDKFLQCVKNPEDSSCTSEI
Source text: The cDNAs of the human enzymes NPP1, NPP3, NPP5, CD38 and CD73 (Genbank accession no. NM_006258, NM_005021, NM_021572, NM_ 001775, and NM_002526, respectively) were obtained from Origene (Rockville, USA). Soluble enzymes were produced as previously reported with some modifications ([Lee et al., 2015]; [Junker et al., 2019]). Briefly, the catalytic domains of the enzymes were amplified and sub-cloned into the expression vector pACGP67 A/B modified with the addition of 9 x histidine tag (His-tag) at the C-terminus (except for NPP1). The plasmids were transfected in Sf9 insect cells using Cellfectin™ II Reagent (Thermo Fisher Scientific, MA, USA) and ProEasy™ baculovirus linearized DNA (Cat.#A10S, AB Vector, LLC). Protein expression was conducted for 48 h at 27°C. The signal peptide sequence of the expression vector shuttled the proteins into the supernatant. The supernatant medium was collected, and the enzymes were purified using HisPur™ Ni^2+-NTA spin columns according to the manufacturer’s protocol. The protein concentration was determined by the method previously described by [Lowry et al. (1951)].
The assay operation was analogous to the NPP3 and NPP5 assays. The enzymatic reactions were performed in 10 mM HEPES reaction buffer (pH 7.2) using 8 ng of human CD38 (expressed in Sf9 insect cells) in analogy to a published procedure ([Blacher et al., 2015]).

## CCCCSc1nc2c(N)ncnc2n1[C@@H]1O[C@H](COP(=O)(O)OP(=O)(O)C(Br)(Br)P(=O)(O)O)[C@@H](O)[C@H]1O [Compound 31, (((((((2R,3S,4R,5R)-5-(6-Amino-8-(butylthio)-9H-purin-9-yl)-3,4-dihydroxytetrahydrofuran-2-yl)methoxy)(hydroxy)-phosphoryl)oxy)(hydroxy)phosphoryl)dibromomethyl)-phosphonic Acid]
NTPDase3
  Ki: 1.54 ± 0.34 µM
Human CD38
  % inhibition: 7%
  Ki: > 10 µM

## CCN(CC)c1ncnc2c1ncn2[C@@H]1O[C@H](COP(=O)(O)OP(=O)(O)C(Br)(Br)P(=O)(O)O)[C@@H](O)[C@H]1O [ARL67156, (Dibromo((((((2R,3S,4R,5R)-5-(6-(diethylamino)-9H-purin-9-yl)-3,4-dihydroxytetrahydrofuran-2-yl)methoxy)-(hydroxy)-phosphoryl)oxy)(hydroxy)phosphoryl)methyl)-phosphonic Acid, reference compound]
NTPDase3
  Ki: 7.94 ± 1.36 µM
Human CD38
  % inhibition: 0%
  Ki: > 10 µM

## CCCCNc1nc2c(NC)ncnc2n1[C@@H]1O[C@H](COP(=O)(O)OP(=O)(O)C(Br)(Br)P(=O)(O)O)[C@@H](O)[C@H]1O [Compound 33, (Dibromo((((((2R,3S,4R,5R)-5-(8-(butylamino)-6-(methylamino)-9H-purin-9-yl)-3,4-dihydroxy-tetrahydrofuran-2-yl)methoxy)(hydroxy)phosphoryl)oxy)-(hydroxy)phosphoryl)methyl)-phosphonic Acid]
NTPDase3
  Ki: 7.8 ± 1.34 µM
Human CD38
  % inhibition: 6%
  Ki: > 10 µM
